In ChEMBL document CHEMBL4765481, “Sialyltransferase Inhibitors Suppress Breast Cancer Metastasis” (J Med Chem, 2021):
pIC50: −log10 of the molar value. Active and inactive are the calls of the source. The rule behind the calls is not given here.

Columns and labels:
MDA-MB-231 [1] = experiment: Antiangiogenesis activity against luciferase-tagged human MDA-MB-231 cells xenografted in BALB/c mouse assessed as reduction in cell proliferation by measuring Ki67 expression at 10 mg/kg/3 days, ip measured after 8 weeks by immunostaining; format: functional, organism-based
MDA-MB-231 [2] = experiment: Inhibition of Sialyltransferase in human MDA-MB-231 cells assessed as reduction in IkappaB-alpha Ser32 phosphorylation level at 10 to 20 uM incubated for 48 hrs by immunoblot analysis; format: cell-based; conditions: dose 10-20 µM
MDA-MB-231 [3] = experiment: Inhibition of serum-induced cell migration of human MDA-MB-231 cells at 20 uM incubated for 16 hrs by Boyden chamber assay; format: functional, cell-based
MDA-MB-231 [4] = experiment: Inhibition of Sialyltransferase in human MDA-MB-231 cells assessed as reduction in IKKalpha/beta Ser176/180 phosphorylation level at 10 to 20 uM incubated for 48 hrs by immunoblot analysis; format: cell-based; conditions: dose 10-20 µM
MDA-MB-231 [5] = experiment: Inhibition of Sialyltransferase in human MDA-MB-231 cells assessed as reduction in integrin isoforms expression (alphaV/alpha5/beta1/beta3/beta4/beta5) at 10 to 20 uM incubated for 48 hrs by immunoblot analysis; format: cell-based; conditions: dose 10-20 µM
MDA-MB-231 [6] = experiment: Antiangiogenesis activity against luciferase-tagged human MDA-MB-231 cells xenografted in BALB/c mouse assessed as reduction in number of vessels surrounding tumor nodules by measuring CD31 expression at 10 mg/kg/3 days, ip measured after 8 weeks by immunostaining; format: functional, organism-based
Danio rerio [7] = organism: Danio rerio; experiment: Antiangiogenic activity in transgenic zebrafish embryos assessed as suppression of caudal vein plexus formation at 20 uM measured at 30 hrs postfertilization by fluorescence microscopy; format: functional, organism-based
MDA-MB-231 [8] = experiment: Inhibition of Sialyltransferase in human MDA-MB-231 cells assessed as reduction in FAK Tyr576/577 phosphorylation level at 10 to 20 uM incubated for 48 hrs by immunoblot analysis; format: cell-based; conditions: dose 10-20 µM
MDA-MB-231 [9] = experiment: Antitumor activity against luciferase-tagged human MDA-MB-231 cells xenografted in BALB/c mouse assessed as reduction in number of metastatic foci in lungs at 10 mg/kg/3 days, ip measured after 8 weeks by histological analysis; format: functional, organism-based
MDA-MB-231 [10] = experiment: Inhibition of Sialyltransferase in human MDA-MB-231 cells assessed as reduction in FAK Tyr397 phosphorylation level at 10 to 20 uM incubated for 48 hrs by immunoblot analysis; format: cell-based; conditions: dose 10-20 µM
MDA-MB-231 [11] = experiment: Antitumor activity against luciferase-tagged human MDA-MB-231 cells xenografted in BALB/c mouse assessed as induction of tumor suppression at 10 mg/kg/3 days, ip measured after 8 weeks; format: functional, organism-based
MDA-MB-231 [12] = experiment: Antitumor activity against luciferase-tagged human MDA-MB-231 cells xenografted in BALB/c mouse assessed as reduction in metastatic nodules in lymph node at 10 mg/kg/3 days, ip measured after 8 weeks by H and E staining based histological analysis; format: functional, organism-based
Danio rerio [13] = organism: Danio rerio; experiment: Antiangiogenic activity in transgenic zebrafish embryos assessed as suppression of intersegmental vessels formation at 20 uM measured at 30 hrs postfertilization by fluorescence microscopy; format: functional, organism-based
[14] = target: T1, Sialyltransferase ST3Gal-I (Rattus norvegicus) (UniProt Q6H8N0); experiment: Inhibition of rat alpha-2,3-O-ST3GALI assessed as reduction in sialylated-product formation at 500 uM using p-nitrophenyl T-antigen and CMP-NeuSAc incubated for 15 mins by reverse-phase HPLC analysis relative to control
T1 sequence (whole entry): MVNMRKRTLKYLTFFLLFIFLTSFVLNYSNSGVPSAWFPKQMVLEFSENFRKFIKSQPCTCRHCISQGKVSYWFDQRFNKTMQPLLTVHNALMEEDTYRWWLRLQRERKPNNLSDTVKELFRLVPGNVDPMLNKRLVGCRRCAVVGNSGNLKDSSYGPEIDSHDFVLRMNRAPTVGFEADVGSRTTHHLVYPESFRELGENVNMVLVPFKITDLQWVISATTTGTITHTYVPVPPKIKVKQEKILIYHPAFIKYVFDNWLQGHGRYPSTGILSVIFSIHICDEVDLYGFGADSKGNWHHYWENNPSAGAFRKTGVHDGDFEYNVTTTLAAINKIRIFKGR

[15] = target: T1, Sialyltransferase ST3Gal-I (Rattus norvegicus); experiment: Inhibition of rat alpha-2,3-O-ST3GALI assessed as reduction in sialylated-product formation at 1 mM using p-nitrophenyl T-antigen and CMP-NeuSAc incubated for 15 mins by reverse-phase HPLC analysis relative to control
[16] = Selectivity ratio of IC50 for of inhibition of rat alpha-2,3-O-ST3GALI to IC50 for inhibition of human alpha-2,6-ST6GAL1
MDA-MB-231 [17] = experiment: Inhibition of serum-induced cell migration of human MDA-MB-231 cells incubated for 16 hrs by Boyden chamber assay; format: functional, cell-based; conditions: MDA-MB-231, 16 h
[18] = Toxicity in BALB/c mouse xenografted with luciferase-tagged human MDA-MB-231 cells assessed as effect on body weight at 10 mg/kg/3 days, ip measured after 8 weeks; format: organism-based; conditions: in vivo, 1344 h
[19] = Toxicity in BALB/c mouse xenografted with luciferase-tagged human MDA-MB-231 cells at 10 mg/kg/3 days, ip measured after 8 weeks by blood tests; format: organism-based; conditions: in vivo, 1344 h
Rattus norvegicus [20] = organism: Rattus norvegicus; experiment: Selectivity ratio of inhibition of rat alpha-2,3-O-ST3GALI at 1000 uM to IC50 for inhibition of rat alpha-2,3-N-ST3GALIII
Rattus norvegicus [21] = organism: Rattus norvegicus; experiment: Selectivity ratio of inhibition of rat alpha-2,3-O-ST3GALI at 500 uM to IC50 for inhibition of rat alpha-2,3-N-ST3GALIII
MDA-MB-231 [22] = experiment: Inhibition of Sialyltransferase in human MDA-MB-231 cells assessed as suppression of sialylation of integrin subunit beta1/beta3/beta4/beta5 at 10 to 20 um after 48 hrs by Western blot analysis; format: cell-based; conditions: dose 10-20 µM
[23] = Toxicity in transgenic zebrafish embryos assessed as effect on gross morphology at 20 uM measured at 30 hrs postfertilization by fluorescence microscopy; set-up: species or system Danio rerio; conditions: in vivo
MDA-MB-231 [24] = experiment: Inhibition of Sialyltransferase in human MDA-MB-231 cells assessed as reduction in NFkappaB Ser536 phosphorylation level at 10 to 20 uM incubated for 48 hrs by immunoblot analysis; format: cell-based; conditions: dose 10-20 µM
MDA-MB-231 [25] = experiment: Inhibition of Sialyltransferase in human MDA-MB-231 cells assessed as reduction in paxillin Tyr118 phosphorylation level at 10 to 20 uM incubated for 48 hrs by immunoblot analysis; format: cell-based; conditions: dose 10-20 µM
[26] = Apparent permeability at pH 7.4 by PAMPA
[27] = Toxicity in human MDA-MB-231 cells assessed as cell survival at >60 uM relative to control; format: cell-based; conditions: read-out: Survival

C[C@H](CCC(=O)OCCOCCOCCN=[N+]=[N-])[C@H]1CC[C@H]2[C@@H]3CC[C@@H]4C[C@H](OC(=O)[C@H](CC(=O)O)Nc5ccc([N+](=O)[O-])c6nonc56)CC[C@]4(C)[C@H]3CC[C@]12C
Activity (MDA-MB-231 [1]): Active
inhibition (MDA-MB-231 [2]): Active
inhibition (MDA-MB-231 [3]): Active
inhibition (MDA-MB-231 [4]): Active
inhibition (MDA-MB-231 [5]): Dose-dependent effect
Activity (MDA-MB-231 [6]): Active
Activity (Danio rerio [7]): Active
inhibition (MDA-MB-231 [8]): Dose-dependent effect
Activity (MDA-MB-231 [9]): Active
inhibition (MDA-MB-231 [10]): Dose-dependent effect
Activity (MDA-MB-231 [11]): Active
Activity (MDA-MB-231 [12]): Active
Activity (Danio rerio [13]): Active
inhibition [14]: 0%
inhibition [15]: 60%
Ratio IC50 [16]: > 139
pIC50 (MDA-MB-231 [17]): 4.97
Activity [18]: Non-Toxic
Activity [19]: Non-Toxic
Selectivity ratio (Rattus norvegicus [20]): < 575
Selectivity ratio (Rattus norvegicus [21]): > 287
inhibition (MDA-MB-231 [22]): Active
Activity [23]: Non-Toxic
inhibition (MDA-MB-231 [24]): Active
inhibition (MDA-MB-231 [25]): Dose-dependent effect
Papp [26]: 3.6 ×10⁻⁶ cm/s
viability [27]: > 90%
